Laboratory results: US20190135793A1, “HETEROCYCLIC INHIBITORS OF KDM5 FOR THE TREATMENT OF DISEASE” (Board of Regents, The University of Texas System, priority 2017, published 2019)
Where two headings read alike, the source gives them in different places.

Legend:
KDM5B = target: T1, KDM5B (Homo sapiens, UniProt Q9UGL1); experiment: biochemical
T1 construct: Full length of KDM5B and KDM4C protein were purchased from Active Motif; purchased Active Motif 31832
Protocol: (§1) KDM4C and KDM5B AlphaScreen Assay Material and Method
(§2) Compounds disclosed herein were (and can be) screened using the following assay.
Peptides used in all experiments were purchased from Anaspe. […] Final concentration of KDM5B and KDM4C used in the assay were 0.5 nM and 0.2 nM. Final concentration of peptides for 5B and 4C used in the assay were 3 nM.
(§3) 4 μL of KDM5B or KDM4C protein were added to 384-well OptiPlate by using multiflow, followed by 4 μl of either buffer or compound. Plates were sealed, spun down and incubated at RT for 15 min. 4 μl of biotinylated peptide was added to the plate, the plate was incubated at room temperature for 25 minutes (KDM5B) and 30 minutes (KDM4C) after sealed and spun down. Streptavidin donor beads and acceptor beads were diluted and mixed in the detection buffer with 7.5 mM EDTA, followed by adding 8 μl of acceptor and donor beads mix to the plate, before the plate was sealed and incubated at room temperature for 3 h or overnight at dark. The plate was read on Envision plate reader (PerkinElmer) using Alphascreen protocol. IC50s were calculated in GraphPad Prism 6.

KDM4C = target: T2, KDM4C (Homo sapiens, UniProt Q9H3R0); experiment: KDM4C AlphaScreen assay; assay type: biochemical; settings: AlphaScreen; full length KDM4C 0.2 nM; biotinylated H3K9Me3 peptide 3 nM; 30 minutes at room temperature
T2 construct: Full length of KDM5B and KDM4C protein were purchased from Active Motif; purchased Active Motif 31858
T2 sequence (Q9H3R0 1-1056): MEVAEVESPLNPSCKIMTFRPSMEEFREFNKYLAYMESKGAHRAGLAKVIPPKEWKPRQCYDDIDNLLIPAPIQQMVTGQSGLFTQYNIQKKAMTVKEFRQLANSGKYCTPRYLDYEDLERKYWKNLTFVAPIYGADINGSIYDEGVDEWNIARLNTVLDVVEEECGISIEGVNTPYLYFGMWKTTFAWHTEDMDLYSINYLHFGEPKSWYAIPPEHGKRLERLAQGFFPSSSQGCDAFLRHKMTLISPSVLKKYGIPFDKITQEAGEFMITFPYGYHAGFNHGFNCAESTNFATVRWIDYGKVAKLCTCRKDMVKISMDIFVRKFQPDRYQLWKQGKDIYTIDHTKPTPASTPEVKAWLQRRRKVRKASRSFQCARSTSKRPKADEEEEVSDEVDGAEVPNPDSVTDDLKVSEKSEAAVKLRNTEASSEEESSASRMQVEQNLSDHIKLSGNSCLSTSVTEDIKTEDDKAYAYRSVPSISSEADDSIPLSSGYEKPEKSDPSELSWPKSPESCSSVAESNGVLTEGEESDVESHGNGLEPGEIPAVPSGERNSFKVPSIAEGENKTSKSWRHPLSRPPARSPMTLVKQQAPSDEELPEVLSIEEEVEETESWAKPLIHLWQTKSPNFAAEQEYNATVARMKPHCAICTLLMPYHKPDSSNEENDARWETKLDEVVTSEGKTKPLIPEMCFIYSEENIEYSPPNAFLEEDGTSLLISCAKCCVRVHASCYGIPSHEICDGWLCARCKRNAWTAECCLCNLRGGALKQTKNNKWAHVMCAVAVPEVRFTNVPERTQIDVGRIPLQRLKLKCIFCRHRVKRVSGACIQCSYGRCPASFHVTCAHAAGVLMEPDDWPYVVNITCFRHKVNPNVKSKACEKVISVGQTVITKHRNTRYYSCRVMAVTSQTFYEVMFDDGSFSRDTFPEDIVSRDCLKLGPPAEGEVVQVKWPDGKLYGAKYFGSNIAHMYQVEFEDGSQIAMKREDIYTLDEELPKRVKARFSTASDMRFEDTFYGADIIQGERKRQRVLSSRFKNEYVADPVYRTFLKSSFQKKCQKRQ
Protocol: as §1, §2
Peptides used in all experiments were purchased from Anaspe. Full length of KDM5B and KDM4C protein were purchased from Active Motif: KDM5B (cat#31832) and KDM4C (Cat #31858). Final concentration of KDM5B and KDM4C used in the assay were 0.5 nM and 0.2 nM. Final concentration of peptides for 5B and 4C used in the assay were 3 nM.
as §3, with “AlphaScreen assays was conducted as following protocol: buffer used to make compound plate or DMSO is composed of 50 mM HEPES pH 7.4, 0.003% Tween-20; buffer used to dilute enzyme is composed of 50 mM HEPES pH 7.4, 0.003% Tween-20, 0.01% BSA, 500 μM TCEP; and buffer used to dilute the substrate is composed of 50 mM HEPES pH 7.4, 0.003% Tween-20, (NH4)2Fe(SO4)2 15 μM, alpha-ketoglutaric acid 4 μM and L-ascorbic acid 100 μM. 4 μL” for “4 μL”

T1 sequence (Q9UGL1 whole entry): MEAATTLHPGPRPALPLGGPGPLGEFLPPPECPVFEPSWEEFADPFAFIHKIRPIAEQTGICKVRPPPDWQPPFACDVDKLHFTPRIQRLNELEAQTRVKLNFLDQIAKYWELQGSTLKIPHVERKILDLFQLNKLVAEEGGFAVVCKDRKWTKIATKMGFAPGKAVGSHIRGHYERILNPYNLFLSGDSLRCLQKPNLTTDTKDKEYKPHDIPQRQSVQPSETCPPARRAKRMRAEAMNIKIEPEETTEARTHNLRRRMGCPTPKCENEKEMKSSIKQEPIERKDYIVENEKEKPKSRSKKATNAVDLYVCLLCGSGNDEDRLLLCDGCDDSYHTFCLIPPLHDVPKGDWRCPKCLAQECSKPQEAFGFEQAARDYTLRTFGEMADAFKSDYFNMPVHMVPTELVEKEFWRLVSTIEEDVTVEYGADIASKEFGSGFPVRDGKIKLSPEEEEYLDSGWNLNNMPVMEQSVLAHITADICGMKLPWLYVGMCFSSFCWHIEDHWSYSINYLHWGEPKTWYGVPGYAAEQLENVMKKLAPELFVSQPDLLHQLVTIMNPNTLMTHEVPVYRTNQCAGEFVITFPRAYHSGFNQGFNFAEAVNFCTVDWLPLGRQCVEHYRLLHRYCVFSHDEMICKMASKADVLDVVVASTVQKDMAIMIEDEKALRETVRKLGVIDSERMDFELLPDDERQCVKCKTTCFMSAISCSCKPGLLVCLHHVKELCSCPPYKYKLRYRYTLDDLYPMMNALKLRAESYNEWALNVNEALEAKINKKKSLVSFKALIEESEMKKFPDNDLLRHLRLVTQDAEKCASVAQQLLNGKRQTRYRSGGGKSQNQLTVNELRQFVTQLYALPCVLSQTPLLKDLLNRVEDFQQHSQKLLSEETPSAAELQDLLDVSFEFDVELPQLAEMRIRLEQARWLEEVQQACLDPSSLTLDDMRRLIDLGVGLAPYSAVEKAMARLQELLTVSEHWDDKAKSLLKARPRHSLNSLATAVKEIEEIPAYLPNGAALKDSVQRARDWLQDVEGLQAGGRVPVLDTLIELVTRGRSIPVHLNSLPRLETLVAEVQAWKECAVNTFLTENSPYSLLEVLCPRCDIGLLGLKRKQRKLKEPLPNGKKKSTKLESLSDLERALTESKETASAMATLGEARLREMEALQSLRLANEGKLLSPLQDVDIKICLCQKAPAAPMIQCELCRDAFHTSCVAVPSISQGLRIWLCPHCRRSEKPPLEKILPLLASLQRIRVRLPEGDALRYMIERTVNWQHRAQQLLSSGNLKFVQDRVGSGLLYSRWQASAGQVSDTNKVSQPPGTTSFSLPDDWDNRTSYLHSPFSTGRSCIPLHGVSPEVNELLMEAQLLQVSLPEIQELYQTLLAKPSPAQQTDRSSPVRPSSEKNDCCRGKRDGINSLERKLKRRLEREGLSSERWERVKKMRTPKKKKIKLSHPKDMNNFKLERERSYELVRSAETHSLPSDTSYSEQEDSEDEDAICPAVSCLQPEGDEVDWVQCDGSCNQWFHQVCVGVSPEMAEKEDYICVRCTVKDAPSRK

IC50 (KDM5B)	IC50 (KDM4C)	IC50 (KDM5B; AlphaScreen, full length KDM5B 0.5 nM, biotinylated H3K4Me3 peptide 3 nM, 25 minutes at room temperature, read-out: KDM5B (IC50))	SMILES
12 nM	1050 nM	–	CC(C)c1c(O)nc(-n2ccnc2)nc1-c1cnn(C(C)C)c1 [Example 1, 2-(1H-imidazol-1-yl)-5-isopropyl-6-(1-isopropyl-1H-pyrazol-4-yl)pyrimidin-4-ol]
229 nM	3890 nM	–	CC(C)c1c(O)nc(-n2ccnc2-c2ccccn2)nc1Cl [Example 2, 6-Chloro-5-(propan-2-yl)-2-[2-(pyridin-2-yl)-1H-imidazol-1-yl]pyrimidin-4-ol]
372 nM	9680 nM	–	CC(C)c1c(O)nc(-n2ccnc2-c2ccccn2)nc1-c1cnn(C(C)C)c1 [Example 3, 5-(Propan-2-yl)-6-[1-(propan-2-yl)-1H-pyrazol-4-yl]-2-[2-(pyridin-2-yl)-1H-imidazol-1-yl]pyrimidin-4-ol]
125 nM	4480 nM	–	Cc1nccn1-c1nc(O)c(C(C)C)c(-c2cnn(C(C)C)c2)n1 [Example 4, 5-isopropyl-6-(1-isopropyl-1H-pyrazol-4-yl)-2-(2-methyl-1H-imidazol-1-yl)pyrimidin-4-ol]
117 nM	7450 nM	–	CC(C)c1c(O)nc(-n2ccnc2)nc1-c1cnn(CC(=O)O)c1 [Example 5, 2-(4-(6-Hydroxy-2-(1H-imidazol-1-yl)-5-isopropylpyrimidin-4-yl)-1H-pyrazol-1-yl)acetic acid]
4 nM	214 nM	–	CC(C)c1c(O)nc(-n2ccnc2)nc1-c1cnn(CC(=O)NCCN2CCCC2)c1 [Example 6, 2-(4-(6-Hydroxy-2-(1H-imidazol-1-yl)-5-isopropylpyrimidin-4-yl)-1H-pyrazol-1-yl)-N-(2-(pyrrolidin-1-yl)ethyl)acetamide]
11 nM	1150 nM	–	CC(C)c1c(O)nc(-n2ccnc2)nc1-c1cnn(CC(N)=O)c1 [Example 7, 2-(4-(6-Hydroxy-2-(1H-imidazol-1-yl)-5-isopropylpyrimidin-4-yl)-1H-pyrazol-1-yl)-acetamide]
8 nM	752 nM	–	CC(C)c1c(O)nc(-n2ccnc2)nc1-c1ccc(C(=O)NCCN(C)C)nc1 [Example 8, N-(2-(dimethylamino)ethyl)-5-(6-hydroxy-2-(1H-imidazol-1-yl)-5-isopropylpyrimidin-4-yl)-picolinamide]
–	2390 nM	13 nM	CC(C)c1c(O)nc(-n2ccnc2)nc1-c1ccc(C(N)=O)nc1 [Example 9, 5-(6-hydroxy-2-(1H-imidazol-1-yl)-5-isopropylpyrimidin-4-yl)picolinamide]
11 nM	908 nM	–	CC(C)c1c(O)nc(-n2ccnc2)nc1C#Cc1cccnc1 [Example 10a, 2-(1H-imidazol-1-yl)-5-(propan-2-yl)-6-[2-(pyridin-3-yl)ethynyl]pyrimidin-4-ol]
11 nM	1490 nM	–	CC(C)c1c(O)nc(-n2ccnc2)nc1CCc1cccnc1 [Example 10b, 2-(1H-imidazol-1-yl)-5-(propan-2-yl)-6-[2-(pyridin-3-yl)ethyl]pyrimidin-4-ol]
7 nM	1210 nM	–	CC(C)c1c(O)nc(-n2ccnc2)nc1OCCC1CCN(C)CC1 [Example 11, 2-(1H-imidazol-1-yl)-6-[2-(1-methylpiperidin-4-yl)ethoxy]-5-(propan-2-yl)pyrimidin-4-ol]
107 nM	1460 nM	–	COc1nc(-n2ccnc2)nc(O)c1C(C)C [Example 12, 2-(1H-Imidazol-1-yl)-5-isopropyl-6-methoxypyrimidin-4-ol]
12 nM	1140 nM	–	CC(C)c1c(O)nc(-n2ccnc2)nc1OCCC1CCN(CCCC(F)(F)F)CC1 [Example 13, 2-(1H-imidazol-1-yl)-5-(propan-2-yl)-6-{2-[1-(4,4,4-trifluorobutyl)piperidin-4-yl]ethoxy}pyrimidin-4-ol]
32 nM	2010 nM	–	CC(C)c1c(O)nc(-n2ccnc2)nc1OCCC1CCN(C(=O)CCO)CC1 [Example 14, 3-hydroxy-1-[4-(2-{[6-hydroxy-2-(1H-imidazol-1-yl)-5-(propan-2-yl)pyrimidin-4-yl]oxy}-ethyl)piperidin-1-yl]propan-1-one]
